Assay results taken from ChEMBL document CHEMBL1146992, “Identification of potent phenyl imidazoles as opioid receptor agonists” (Bioorg Med Chem Lett, 2006).

Columns and labels:
Mu-type opioid receptor [1] = biological target: Mu-type opioid receptor (Rattus norvegicus, UniProt P33535); assay: Displacement of [3H]DAMGO from mu opioid receptor in rat brain; assay type: tissue-based
[2] = biological target: Opioid receptors; mu & delta (Rattus norvegicus) (UniProt P33533+P33535); assay: Selectivity for delta opioid receptor over mu opioid receptor; assay type: protein assay
Chain of Opioid receptors; mu & delta (Rattus norvegicus) (P33533 whole entry, looked up): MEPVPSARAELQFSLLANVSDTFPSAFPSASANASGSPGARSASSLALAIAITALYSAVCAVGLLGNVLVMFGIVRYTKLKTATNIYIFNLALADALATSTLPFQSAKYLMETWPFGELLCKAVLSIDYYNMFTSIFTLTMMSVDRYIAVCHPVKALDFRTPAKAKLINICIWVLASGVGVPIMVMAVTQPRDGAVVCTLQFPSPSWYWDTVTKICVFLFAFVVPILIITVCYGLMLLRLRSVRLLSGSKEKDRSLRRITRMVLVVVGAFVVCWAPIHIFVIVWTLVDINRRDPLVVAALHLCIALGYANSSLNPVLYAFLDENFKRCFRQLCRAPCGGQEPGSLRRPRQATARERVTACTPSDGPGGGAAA
Chain of Opioid receptors; mu & delta (Rattus norvegicus) (P33535 whole entry, looked up): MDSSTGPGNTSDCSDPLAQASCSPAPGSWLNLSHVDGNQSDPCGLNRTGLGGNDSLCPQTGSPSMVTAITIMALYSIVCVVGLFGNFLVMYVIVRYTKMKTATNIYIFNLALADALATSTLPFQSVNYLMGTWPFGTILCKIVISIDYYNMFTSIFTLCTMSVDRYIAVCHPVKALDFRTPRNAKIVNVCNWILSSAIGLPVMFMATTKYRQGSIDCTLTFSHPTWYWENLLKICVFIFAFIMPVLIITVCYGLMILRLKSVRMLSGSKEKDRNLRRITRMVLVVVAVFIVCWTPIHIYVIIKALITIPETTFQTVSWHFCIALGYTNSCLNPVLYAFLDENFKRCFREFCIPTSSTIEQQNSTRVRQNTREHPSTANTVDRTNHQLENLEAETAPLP

[3] = biological target: Delta-type opioid receptor (Rattus norvegicus, UniProt P33533); assay: Displacement of [3H]DPDPE from delta opioid receptor in rat brain; assay type: tissue-based
Chain of Delta-type opioid receptor (Rattus norvegicus, UniProt P33533) (P33533 whole entry): as the sequence (P33533 whole entry, looked up) above

[4] = biological target: Delta-type opioid receptor (Mus musculus, UniProt P32300); assay: Activity against delta opioid receptor by stimulation of [35S]GTP-gamma-S binding in CHO-hgamma cells; assay type: functional, cell-based
Chain of Delta-type opioid receptor (Mus musculus, UniProt P32300) (P32300 whole entry): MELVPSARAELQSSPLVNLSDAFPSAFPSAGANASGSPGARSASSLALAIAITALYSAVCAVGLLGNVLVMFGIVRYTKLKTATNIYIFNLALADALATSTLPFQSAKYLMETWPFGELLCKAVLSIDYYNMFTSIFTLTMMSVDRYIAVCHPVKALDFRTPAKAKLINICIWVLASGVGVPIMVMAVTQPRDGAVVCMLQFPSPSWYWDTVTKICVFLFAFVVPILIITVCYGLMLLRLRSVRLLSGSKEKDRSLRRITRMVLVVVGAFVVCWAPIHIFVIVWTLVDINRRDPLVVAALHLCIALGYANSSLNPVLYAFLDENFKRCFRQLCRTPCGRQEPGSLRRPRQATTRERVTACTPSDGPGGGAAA

Mu-type opioid receptor [5] = biological target: Mu-type opioid receptor (Cavia porcellus, UniProt P97266); assay: Activity against mu opioid receptor by stimulation of [35S]GTP-gamma-S binding in CHO-hgamma cells; assay type: functional, cell-based
Chain of Mu-type opioid receptor (Cavia porcellus, UniProt P97266) (P97266 whole entry): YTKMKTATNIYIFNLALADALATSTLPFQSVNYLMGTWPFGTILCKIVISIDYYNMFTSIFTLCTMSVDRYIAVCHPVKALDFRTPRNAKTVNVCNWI

Chain of Mu-type opioid receptor (Rattus norvegicus, UniProt P33535) (P33535 whole entry): as the sequence (P33535 whole entry, looked up) above

| Structure (SMILES) | Ki (Mu-type opioid receptor [1]) | Ratio Ki [2] | Ki [3] | EC50 [4] | EC50 (Mu-type opioid receptor [5]) |
| --- | --- | --- | --- | --- | --- |
| N[C@@H](Cc1ccc(C(=O)O)cc1)C(=O)N1Cc2ccccc2C[C@H]1c1nc(-c2ccccc2)c[nH]1 | 5800 nM | 1.1 | 5200 nM | – | – |
| Cc1[nH]c([C@@H]2Cc3ccccc3CN2C(=O)[C@@H](N)Cc2ccc(O)cc2)nc1-c1ccccc1 | – | 75 | – | – | – |
| CC(=O)Nc1ccc(C[C@H](N)C(=O)N2Cc3ccccc3C[C@H]2c2nc(C)c(-c3ccccc3)[nH]2)cc1 | – | 6 | – | – | – |
| CS(=O)(=O)Nc1ccc(C[C@H](N)C(=O)N2Cc3ccccc3C[C@H]2c2nc(-c3ccccc3)c[nH]2)cc1 | 356 nM | 1 | 342 nM | – | – |
| Cc1cc(O)cc(C)c1C[C@H](N)C(=O)N1Cc2ccccc2C[C@H]1c1nc(-c2ccccc2)c[nH]1 | 0.3 nM | 3.2 | 0.1 nM | 0.9 nM | 27 nM |
| COc1ccc(C[C@H](N)C(=O)N2Cc3ccccc3C[C@H]2c2nc(C)c(-c3ccccc3)[nH]2)cc1 | – | 6.4 | – | – | – |
| N[C@@H](Cc1ccc(Cl)cc1)C(=O)N1Cc2ccccc2C[C@H]1c1nc(-c2ccccc2)c[nH]1 | – | 4.6 | – | – | – |
| Cc1[nH]c([C@@H]2Cc3ccccc3CN2C(=O)[C@@H](N)Cc2ccc(F)cc2)nc1-c1ccccc1 | – | 19 | – | – | – |
| NC(=O)c1ccc(C[C@H](N)C(=O)N2CCCC[C@H]2c2nc(-c3ccccc3)c[nH]2)cc1 | 1.2 nM | 0.02 | – | 730 nM | 100 nM |
| N[C@@H](Cc1ccccc1)C(=O)N1Cc2ccccc2C[C@H]1c1nc(-c2ccccc2)c[nH]1 | 443 nM | 1.7 | 266 nM | – | – |
| N[C@@H](Cc1ccc(CO)cc1)C(=O)N1Cc2ccccc2C[C@H]1c1nc(-c2ccccc2)c[nH]1 | 912 nM | 2 | 466 nM | – | – |
| Cc1[nH]c([C@@H]2Cc3ccccc3CN2C(=O)[C@@H](N)Cc2ccc(N)cc2)nc1-c1ccccc1 | – | 9 | – | – | – |
| CC(=O)c1ccc(C[C@H](N)C(=O)N2Cc3ccccc3C[C@H]2c2nc(-c3ccccc3)c[nH]2)cc1 | – | 14 | 30 nM | – | – |
| Cc1cc(O)cc(C)c1C[C@H](N)C(=O)N1Cc2ccccc2C[C@H]1c1nc(C)c(-c2ccccc2)[nH]1 | – | 3.2 | – | – | – |
| Cc1cc(O)cc(C)c1C[C@H](N)C(=O)N1CCCC[C@H]1c1nc(-c2ccccc2)c[nH]1 | 0.05 nM | 0.03 | 1.9 nM | 37 nM | 2 nM |
| N[C@@H](Cc1ccc(S(N)(=O)=O)cc1)C(=O)N1Cc2ccccc2C[C@H]1c1nc(-c2ccccc2)c[nH]1 | – | 3.4 | – | – | – |
| Cc1[nH]c([C@@H]2CCCCN2C(=O)[C@@H](N)Cc2ccc(O)cc2)nc1-c1ccccc1 | – | 0.1 | – | 500 nM | 142 nM |
| Cc1[nH]c([C@@H]2Cc3ccccc3CN2C(=O)[C@@H](N)Cc2ccc(C#N)cc2)nc1-c1ccccc1 | 1340 nM | 1.8 | 752 nM | – | – |
| Cc1cc(C(N)=O)cc(C)c1C[C@H](N)C(=O)N1Cc2ccccc2C[C@H]1c1nc(-c2ccccc2)c[nH]1 | 1.4 nM | – | – | 22 nM | 161 nM |
| Cc1[nH]c([C@@H]2Cc3ccccc3CN2C(=O)[C@@H](N)Cc2ccccc2)nc1-c1ccccc1 | 1830 nM | 8 | 236 nM | – | – |
| Cc1cc(O)cc(C)c1C[C@H](N)C(=O)N1Cc2ccccc2C[C@H]1c1nc(-c2ccccc2)c(C)[nH]1 | 0.3 nM | – | 0.1 nM | – | – |
| N[C@@H](Cc1ccc(O)cc1)C(=O)N1CCCC[C@H]1c1nc(-c2ccccc2)c[nH]1 | 3.8 nM | 0.02 | 198 nM | – | – |
| NC(=O)c1ccc(C[C@H](N)C(=O)N2Cc3ccccc3C[C@H]2c2nc(-c3ccccc3)c[nH]2)cc1 | 23 nM | 18.4 | 1.3 nM | 3 nM | 155 nM |
| N[C@@H](Cc1ccc(O)cc1)C(=O)N1Cc2ccccc2C[C@H]1c1nc(-c2ccccc2)c[nH]1 | – | 63 | – | 19 nM | – |
| Cc1cc(C(N)=O)cc(C)c1C[C@H](N)C(=O)N1CCCC[C@H]1c1nc(-c2ccccc2)c[nH]1 | 0.13 nM | – | 14 nM | 135 nM | 9 nM |
| N[C@@H](Cc1ccccc1)C(=O)N1CCCC[C@H]1c1nc(-c2ccccc2)c[nH]1 | 18 nM | 0.02 | 1130 nM | – | – |
